Results published in US10294202B2, “Pyrrolidinones as herbicides” (FMC Corporation, priority 2013, dated 2019).

Key:
ragweed = experiment: Test A pre-/postemergence herbicide test; format: in vivo, Ambrosia elatior; conditions: for Plant response rating, Ragweed: 0 to 100 scale
Summary of the method: (§1)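 Scoring was visual, relative to untreated controls, on a 0–100 scale after about 10 greenhouse days. Preemergence treatment used a directed soil spray over seeded loam/sand; postemergence treatment targeted one- to two-leaf plants of 2–10 cm.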

ryegrass, Italian = experiment: Test A pre-/postemergence herbicide test; format: in vivo, Lolium multiflorum; conditions: for Plant response rating, Ryegrass, Italian: 0 to 100 scale
Summary of the method: as §1

wheat = experiment: Test A pre-/postemergence herbicide test; format: in vivo, Triticum aestivum; conditions: Postemergence; for Plant response rating, Wheat: 125 g ai/ha, 0 to 100 scale, 0 no effect, 100 complete control; for Wheat plant response rating (0 to 100 scale, 0 is no effect, 100 is complete control): 500 g ai/ha
Summary of the method: as §1

rice = experiment: Test B flooded paddy test; format: in vivo, Oryza sativa; conditions: 500 g ai/ha, Flood; scale of 0 to 100 where 0 is no effect and 100 is complete control
Summary of the method: (§2)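 Plants were grown to the 2-leaf stage, then pots were flooded to 3 cm above the soil and compound was applied directly into the paddy water, with that depth held throughout. After 13 to 15 days in a greenhouse, injury was rated visually against untreated controls on a 0 to 100 scale (100 = complete control).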

galium = experiment: Test A postemergence herbicide test; format: in vivo, Galium aparine; conditions: for Plant response rating, Galium: 125 g ai/ha, 0 to 100 scale, 0 no effect, 100 complete control; for Galium plant response rating (0 to 100 scale, 0 is no effect, 100 is complete control): 500 g ai/ha
Summary of the method: (§3)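 Young potted plants in a loam–sand mix, one- to two-leaf stage and 2–10 cm tall, receive the test chemical postemergence and stay in a greenhouse for approximately 10 days. Injury is then judged by eye against untreated plants, scored 0 (none) to 100 (complete control).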

kochia = experiment: Test A pre-/postemergence herbicide test; format: in vivo, Kochia scoparia; conditions: for Plant response rating, Kochia: 0 to 100 scale
Summary of the method: as §1

pigweed = experiment: Test A pre-/postemergence herbicide test; format: in vivo, Amaranthus retroflexus; conditions: for Plant response rating, Pigweed: 0 to 100 scale
Summary of the method: as §1

blackgrass = experiment: Test A postemergence herbicide test; format: in vivo, Alopecurus myosuroides; conditions: for Plant response rating, Blackgrass: 125 g ai/ha, 0 to 100 scale, 0 no effect, 100 complete control; for Blackgrass plant response rating (0 to 100 scale, 0 is no effect, 100 is complete control): 500 g ai/ha
Summary of the method: as §3

corn = experiment: Test A pre-/postemergence herbicide test; format: in vivo, Zea mays; conditions: Postemergence; for Plant response rating, Corn: 125 g ai/ha, 0 to 100 scale, 0 no effect, 100 complete control; for Corn plant response rating (0 to 100 scale, 0 is no effect, 100 is complete control): 500 g ai/ha
Summary of the method: as §1

sedge, umbrella = experiment: Test B flooded paddy test; format: in vivo, Cyperus difformis; conditions: 500 g ai/ha, Flood; scale of 0 to 100 where 0 is no effect and 100 is complete control
Summary of the method: as §2

barnyardgrass [1] = experiment: Test B flooded paddy test; format: in vivo, Echinochloa crus-galli; conditions: 500 g ai/ha, Flood; scale of 0 to 100 where 0 is no effect and 100 is complete control
Summary of the method: as §2

ducksalad = experiment: Test B flooded paddy test; format: in vivo, Heteranthera limosa; conditions: 500 g ai/ha, Flood; scale of 0 to 100 where 0 is no effect and 100 is complete control
Summary of the method: as §2

giant foxtail = experiment: Test A pre-/postemergence herbicide test; format: in vivo, Setaria faberii; conditions: for Plant response rating, Foxtail, Giant: 0 to 100 scale
Summary of the method: as §1

barnyardgrass [2] = experiment: Test A pre-/postemergence herbicide test; format: in vivo, Echinochloa crus-galli
Summary of the method: as §1

[3] = 125 g ai/ha, visual rating, 0 no effect, 100 complete control, approximately 10 days, preemergence
[4] = Postemergence, 125 g ai/ha, 0 no effect, 100 complete control
[5] = 125 g ai/ha, visual rating, 0 to 100 scale, 0 no effect, 100 complete control, approximately 10 days, preemergence
[6] = Postemergence, 125 g ai/ha, 0 to 100 scale, 0 no effect, 100 complete control
[7] = preemergence, 500 g ai/ha, 0 to 100 scale (0 no effect, 100 complete control)

Cc1cc(C2CNC(=O)C2C(=O)Nc2ccccc2F)ccc1F (racemic) [Compound 139]
Plant response rating, Ragweed (ragweed; [3]): 0 | Plant response rating, Ragweed (ragweed; [4]): 0 | Ragweed plant response rating (0 to 100 scale, 0 is no effect, 100 is complete control) (ragweed; Postemergence, 500 g ai/ha): 0 | Plant response rating, Ragweed (ragweed; preemergence, 500 g ai/ha): 0 | Plant response rating, Ryegrass, Italian (ryegrass, Italian; [3]): 0 | Plant response rating, Ryegrass, Italian (ryegrass, Italian; [4]): 0 | Ryegrass, Italian plant response rating (0 to 100 scale, 0 is no effect, 100 is complete control) (ryegrass, Italian; Postemergence, 500 g ai/ha): 0 | Plant response rating, Ryegrass, Italian (ryegrass, Italian; preemergence, 500 g ai/ha): 0 | Plant response rating, Wheat (wheat): 0 | Wheat plant response rating (0 to 100 scale, 0 is no effect, 100 is complete control) (wheat): 0 | Plant response rating, Rice (rice): 0 | Plant response rating, Galium (galium): 0 | Galium plant response rating (0 to 100 scale, 0 is no effect, 100 is complete control) (galium): 30 | Plant response rating, Kochia (kochia; [3]): 0 | Plant response rating, Kochia (kochia; [4]): 0 | Kochia plant response rating (0 to 100 scale, 0 is no effect, 100 is complete control) (kochia; Postemergence, 500 g ai/ha): 0 | Plant response rating, Kochia (kochia; preemergence, 500 g ai/ha): 30 | Plant response rating, Pigweed (pigweed; [3]): 0 | Plant response rating, Pigweed (pigweed; [4]): 0 | Pigweed plant response rating (0 to 100 scale, 0 is no effect, 100 is complete control) (pigweed; Postemergence, 500 g ai/ha): 0 | Plant response rating, Pigweed (pigweed; preemergence, 500 g ai/ha): 20 | Plant response rating, Blackgrass (blackgrass): 0 | Blackgrass plant response rating (0 to 100 scale, 0 is no effect, 100 is complete control) (blackgrass): 20 | Plant response rating, Corn (corn): 0 | Corn plant response rating (0 to 100 scale, 0 is no effect, 100 is complete control) (corn): 0 | Plant response rating, Sedge, Umbrella (sedge, umbrella): 0 | Plant response rating, Barnyardgrass (barnyardgrass [1]): 60 | Plant response rating, Ducksalad (ducksalad): 100 | Plant response rating, Foxtail, Giant (giant foxtail; [3]): 50 | Plant response rating, Foxtail, Giant (giant foxtail; [4]): 30 | Foxtail, Giant plant response rating (0 to 100 scale, 0 is no effect, 100 is complete control) (giant foxtail; Postemergence, 500 g ai/ha): 30 | Plant response rating, Foxtail, Giant (giant foxtail; preemergence, 500 g ai/ha): 90 | Plant response rating, Barnyardgrass (barnyardgrass [2]; [5]): 70 | Plant response rating, Barnyardgrass (barnyardgrass [2]; [6]): 80 | Barnyardgrass plant response rating (0 to 100 scale, 0 is no effect, 100 is complete control) (barnyardgrass [2]; Postemergence, 500 g ai/ha): 90 | Plant response rating, Barnyardgrass (barnyardgrass [2]; [7]): 90

Cc1cc(C2CNC(=O)C2C(=O)Nc2ccc(F)cc2F)ccc1F (racemic) [Compound 140]
Plant response rating, Ragweed (ragweed; [3]): 0 | Plant response rating, Ragweed (ragweed; [4]): 0 | Ragweed plant response rating (0 to 100 scale, 0 is no effect, 100 is complete control) (ragweed; Postemergence, 500 g ai/ha): 0 | Plant response rating, Ragweed (ragweed; preemergence, 500 g ai/ha): 0 | Plant response rating, Ryegrass, Italian (ryegrass, Italian; [3]): 0 | Plant response rating, Ryegrass, Italian (ryegrass, Italian; [4]): 0 | Ryegrass, Italian plant response rating (0 to 100 scale, 0 is no effect, 100 is complete control) (ryegrass, Italian; Postemergence, 500 g ai/ha): 0 | Plant response rating, Ryegrass, Italian (ryegrass, Italian; preemergence, 500 g ai/ha): 0 | Plant response rating, Wheat (wheat): 0 | Wheat plant response rating (0 to 100 scale, 0 is no effect, 100 is complete control) (wheat): 0 | Plant response rating, Rice (rice): 0 | Plant response rating, Galium (galium): 0 | Galium plant response rating (0 to 100 scale, 0 is no effect, 100 is complete control) (galium): 30 | Plant response rating, Kochia (kochia; [3]): 0 | Plant response rating, Kochia (kochia; [4]): 0 | Kochia plant response rating (0 to 100 scale, 0 is no effect, 100 is complete control) (kochia; Postemergence, 500 g ai/ha): 0 | Plant response rating, Kochia (kochia; preemergence, 500 g ai/ha): 0 | Plant response rating, Pigweed (pigweed; [3]): 0 | Plant response rating, Pigweed (pigweed; [4]): 0 | Pigweed plant response rating (0 to 100 scale, 0 is no effect, 100 is complete control) (pigweed; Postemergence, 500 g ai/ha): 0 | Plant response rating, Pigweed (pigweed; preemergence, 500 g ai/ha): 0 | Plant response rating, Blackgrass (blackgrass): 0 | Blackgrass plant response rating (0 to 100 scale, 0 is no effect, 100 is complete control) (blackgrass): 20 | Plant response rating, Corn (corn): 0 | Corn plant response rating (0 to 100 scale, 0 is no effect, 100 is complete control) (corn): 0 | Plant response rating, Sedge, Umbrella (sedge, umbrella): 0 | Plant response rating, Barnyardgrass (barnyardgrass [1]): 70 | Plant response rating, Ducksalad (ducksalad): 100 | Plant response rating, Foxtail, Giant (giant foxtail; [3]): 50 | Plant response rating, Foxtail, Giant (giant foxtail; [4]): 0 | Foxtail, Giant plant response rating (0 to 100 scale, 0 is no effect, 100 is complete control) (giant foxtail; Postemergence, 500 g ai/ha): 50 | Plant response rating, Foxtail, Giant (giant foxtail; preemergence, 500 g ai/ha): 90 | Plant response rating, Barnyardgrass (barnyardgrass [2]; [5]): 80 | Plant response rating, Barnyardgrass (barnyardgrass [2]; [6]): 70 | Barnyardgrass plant response rating (0 to 100 scale, 0 is no effect, 100 is complete control) (barnyardgrass [2]; Postemergence, 500 g ai/ha): 80 | Plant response rating, Barnyardgrass (barnyardgrass [2]; [7]): 90

Cc1cc(C2CNC(=O)C2C(=O)Nc2cccc(F)c2F)ccc1F (racemic) [Compound 141]
Plant response rating, Ragweed (ragweed; [3]): 0 | Plant response rating, Ragweed (ragweed; [4]): 0 | Ragweed plant response rating (0 to 100 scale, 0 is no effect, 100 is complete control) (ragweed; Postemergence, 500 g ai/ha): 40 | Plant response rating, Ragweed (ragweed; preemergence, 500 g ai/ha): 0 | Plant response rating, Ryegrass, Italian (ryegrass, Italian; [3]): 0 | Plant response rating, Ryegrass, Italian (ryegrass, Italian; [4]): 0 | Ryegrass, Italian plant response rating (0 to 100 scale, 0 is no effect, 100 is complete control) (ryegrass, Italian; Postemergence, 500 g ai/ha): 40 | Plant response rating, Ryegrass, Italian (ryegrass, Italian; preemergence, 500 g ai/ha): 20 | Plant response rating, Wheat (wheat): 0 | Wheat plant response rating (0 to 100 scale, 0 is no effect, 100 is complete control) (wheat): 30 | Plant response rating, Rice (rice): 0 | Plant response rating, Galium (galium): 20 | Galium plant response rating (0 to 100 scale, 0 is no effect, 100 is complete control) (galium): 50 | Plant response rating, Kochia (kochia; [3]): 0 | Plant response rating, Kochia (kochia; [4]): 0 | Kochia plant response rating (0 to 100 scale, 0 is no effect, 100 is complete control) (kochia; Postemergence, 500 g ai/ha): 20 | Plant response rating, Kochia (kochia; preemergence, 500 g ai/ha): 20 | Plant response rating, Pigweed (pigweed; [3]): 0 | Plant response rating, Pigweed (pigweed; [4]): 0 | Pigweed plant response rating (0 to 100 scale, 0 is no effect, 100 is complete control) (pigweed; Postemergence, 500 g ai/ha): 0 | Plant response rating, Pigweed (pigweed; preemergence, 500 g ai/ha): 0 | Plant response rating, Blackgrass (blackgrass): 0 | Blackgrass plant response rating (0 to 100 scale, 0 is no effect, 100 is complete control) (blackgrass): 50 | Plant response rating, Corn (corn): 0 | Corn plant response rating (0 to 100 scale, 0 is no effect, 100 is complete control) (corn): 50 | Plant response rating, Sedge, Umbrella (sedge, umbrella): 0 | Plant response rating, Barnyardgrass (barnyardgrass [1]): 50 | Plant response rating, Ducksalad (ducksalad): 100 | Plant response rating, Foxtail, Giant (giant foxtail; [3]): 50 | Plant response rating, Foxtail, Giant (giant foxtail; [4]): 0 | Foxtail, Giant plant response rating (0 to 100 scale, 0 is no effect, 100 is complete control) (giant foxtail; Postemergence, 500 g ai/ha): 50 | Plant response rating, Foxtail, Giant (giant foxtail; preemergence, 500 g ai/ha): 90 | Plant response rating, Barnyardgrass (barnyardgrass [2]; [5]): 90 | Plant response rating, Barnyardgrass (barnyardgrass [2]; [6]): 80 | Barnyardgrass plant response rating (0 to 100 scale, 0 is no effect, 100 is complete control) (barnyardgrass [2]; Postemergence, 500 g ai/ha): 90 | Plant response rating, Barnyardgrass (barnyardgrass [2]; [7]): 90
